Measurements: ChEMBL document CHEMBL1155322, “Pharmacophore modeling and virtual screening for the discovery of new transforming growth factor-beta type I receptor (ALK5) inhibitors” (Eur J Med Chem, 2009)

These compounds were tested against T1, TGF-beta receptor type-1 (Homo sapiens, UniProt P36897).
T1 sequence (P36897 whole entry): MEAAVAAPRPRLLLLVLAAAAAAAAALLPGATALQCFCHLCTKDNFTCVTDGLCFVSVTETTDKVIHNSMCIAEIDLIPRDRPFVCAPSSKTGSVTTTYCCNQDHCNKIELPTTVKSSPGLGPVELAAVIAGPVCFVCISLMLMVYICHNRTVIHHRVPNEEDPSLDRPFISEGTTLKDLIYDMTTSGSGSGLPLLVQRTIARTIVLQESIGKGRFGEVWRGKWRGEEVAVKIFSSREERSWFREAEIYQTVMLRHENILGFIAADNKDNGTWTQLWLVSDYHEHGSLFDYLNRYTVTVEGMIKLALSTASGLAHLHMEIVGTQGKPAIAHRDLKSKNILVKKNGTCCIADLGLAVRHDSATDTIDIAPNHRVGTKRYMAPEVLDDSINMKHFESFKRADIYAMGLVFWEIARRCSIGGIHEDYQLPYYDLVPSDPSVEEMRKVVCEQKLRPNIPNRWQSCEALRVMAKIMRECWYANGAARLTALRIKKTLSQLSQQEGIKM

SMILES	IC50 [nM]
CCOc1ccc2c(-c3c(-c4cccc(C)n4)nn4c3CCC4)ccnc2c1	88
c1ccc(-c2nn3c(c2-c2ccnc4ccccc24)CCC3)nc1	104
Cc1cccc(-c2[nH]c(CNc3ccc(C#N)cc3)nc2-c2ccc3c(c2)OCO3)n1	46
Cc1cccc(-c2[nH]c(CNc3ccc(C(N)=O)cc3)nc2-c2ccc3c(c2)OCO3)n1	21
CN(C)CC(=O)Nc1ccc2c(-c3c(-c4ccccn4)nn4c3CCC4)ccnc2c1	64
Fc1ccc(-c2nn3c(c2-c2ccnc4ccccc24)CCC3)nc1	151
Cc1cccc(-c2nn3c(c2-c2ccnc4cc(Cl)ccc24)CCC3)n1	48
C#Cc1ccc(CNc2nc(-c3ccc4c(c3)OCO4)c(-c3cccc(C)n3)[nH]2)cc1	153
Cc1cccc(-c2[nH]c(NCc3ccc(C#N)cc3)nc2-c2ccc3c(c2)OCO3)n1	24
Cc1cccc2ccc(-c3sc(N)nc3-c3ccccn3)nc12	30
CN(C)CCCn1cnc2cc(-c3c(-c4ccccn4)nn4c3CCC4)ccc21	398
CN(C)CCNC(=O)Nc1ccc2c(-c3c(-c4ccccn4)nn4c3CCC4)ccnc2c1	18
c1ccc(-c2n[nH]cc2-c2ccnc(-c3ccc(CNC4CCCOC4)cc3)c2)nc1 (stereo unspecified)	47
O=C(Nc1ccc2c(-c3c(-c4ccccn4)nn4c3CCC4)ccnc2c1)OCCO	79
Fc1ccc(C2C(c3ccncc3)NC3SCCN32)cc1 (stereo unspecified)	50000
CN(C)CCCc1cccc(-c2cc(-c3c[nH]nc3-c3ccccn3)ccn2)c1	15
Cc1cccnc1-c1nc(N)sc1-c1ccc2ncccc2n1	6
Nc1nc(-c2cccc(Cl)n2)c(-c2ccnc3ccccc23)s1	1780
Cc1cccc(-c2nn3c(c2-c2ccc4c(c2)ncn4C)CCC3)n1	1700
COC(=O)Nc1ccc2c(-c3c(-c4ccccn4)nn4c3CCC4)ccnc2c1	40
CN(C)CCCNC(=O)Nc1ccc2c(-c3c(-c4ccccn4)nn4c3CCC4)ccnc2c1	255
Nc1ccc2c(-c3c(-c4ccccn4)nn4c3CCC4)ccnc2c1	59
Nc1nc(-c2cccc(Cl)c2)c(-c2ccc3ncccc3n2)s1 [GW780159X]	13
Nc1nc(-c2ccc(F)cc2)c(-c2ccc3ncccc3n2)s1 [GW785804X]	11
CCc1[nH]c(-c2ccc(OC)cc2)nc1-c1ccncc1 [SB-202474]	30000

Continued, values first:

IC50 [nM]	SMILES
110	CCSc1ccc2c(-c3c(-c4ccccn4)nn4c3CCC4)ccnc2c1
71	CCc1cccc(-c2nn3c(c2-c2ccnc4ccccc24)CCC3)n1
19	c1ccc(-c2n[nH]cc2-c2ccc3ncccc3n2)nc1
9290	CCS(=O)(=O)c1ccc2c(-c3c(-c4ccccn4)nn4c3CCC4)ccnc2c1
119	C#Cc1cccc(NCc2nc(-c3ccc4nccnc4c3)c(-c3cccc(CC)n3)[nH]2)c1
174	C#Cc1ccc(NCc2nc(-c3ccc4c(c3)OCO4)c(-c3cccc(C)n3)[nH]2)cc1
46	CCc1cccc(-c2[nH]c(CNc3ccc(C(N)=O)cc3)nc2-c2ccc3c(c2)OCO3)n1
34	COCCC(=O)Nc1ccc2c(-c3c(-c4ccccn4)nn4c3CCC4)ccnc2c1
87	CC(=O)Nc1ccc2c(-c3c(-c4ccccn4)nn4c3CCC4)ccnc2c1
27	O=C(O)c1ccc(-c2cc(-c3c[nH]nc3-c3ccccn3)ccn2)cc1
32	O=C(CCO)Nc1ccc2c(-c3c(-c4ccccn4)nn4c3CCC4)ccnc2c1
